# According to patent publication US12239643B2, “Therapeutic agent for inflammatory diseases, autoimmune diseases, fibrotic diseases, and cancer diseases” (MEIJI SEIKA PHARMA CO., LTD., priority 2018, dated 2025):
# pIC50: −log10 of the molar value. Read-outs that look alike come from different tables or passages of the source.
# Experiments:
# PDE4 = assay: Evaluation of PDE4 inhibitory activity, scintillation proximity assay; type: biochemical; conditions: for PDE4 inhibitory activity: summary in words of Tables 57 to 69
# How it was run: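 SPA with [2,8-3H]-cAMP and diluted PDE4 enzyme preparation in 50 mM Tris-HCl pH 7.4, 8.3 mM MgCl2, 1.7 mM EGTA, 3 mg/mL BSA, 120 min at room temperature. Product captured on ZnSO4-containing YSi-SPA beads, scintillation counted; IC50 from inhibition curves vs DMSO control and no-enzyme blank.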
# TGF-β = TGF-β inhibitory activity using THP1 cells differentiated into macrophages; type: cell-based; conditions: Homo sapiens, THP-1; THP1 cells differentiated into macrophages, lipopolysaccharide 1 μg/mL, about 7 hours; read-out: TFG-β Inhibitory Activity (Test Example 6)
# Procedure: The TGF-β inhibitory activity was measured using THP1 cells as follows. First, THP1 cells were seeded on a 24-well culture plate at […], and culture was carried out overnight at 37° C. and 5% CO2 in RPMI-1640 medium (containing 10% fetal bovine serum, penicillin, and streptomycin) supplemented with 100 nM phorbol myristate acetate. After that, the cells were differentiated into macrophages by changing to RPMI-1640 medium without phorbol myristate acetate, followed by further culture at 37° C. under 5% CO2 overnight. Next, the THP1 culture plate was washed once with PBS(−) 1 mL/well, and then the test compound and lipopolysaccharide (final concentration 1 μg/mL) were added, followed by culture at 37° C. under 5% CO2 for about 7 hours. After culturing, the entire amount of the medium was collected, and the amount of TGF-β in the centrifuged supernatant was quantified by the sandwich ELISA method. The non-addition of lipopolysaccharide was used as a blank, and the control was obtained by adding only dimethyl sulfoxide instead of the test compound, and the inhibition rate of the test compound against the control was calculated by the following formula. Inhibition Rate (%)={1−(Value at Addition of Each Test Compound−Blank Value)/(Control Value−Blank Value)}×100
# In addition, the TGF-β inhibitory activity (concentration for the inhibition rate of 50%) of the test compound was calculated from the inhibition curves based on the inhibition rate for various concentrations of the test compound.
# The measurement results obtained by measuring the TFG-β inhibitory activity (50% inhibitory concentration) of the test compounds by the above method were evaluated in accordance with the following evaluated basis; A: less than 1 μM, and B: 1 μM or more.
# [1] = Hepatic metabolic stability (rat liver microsome method); type: in vitro ADME; conditions: rat liver microsomes 0.5 mg/mL, test substance 1 μM, NADPH 1 mM, 37° C., 30 minutes
# How it was run: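 Rat liver microsomes (0.5 mg/mL final) with test compound (1 μM final) in 100 mM potassium phosphate pH 7.4, 37° C; reaction started with NADPH (1 mM final) after 5 min preincubation. Acetonitrile stop at 0 and 30 min, LC-MS quantitation; % remaining = 30 min/0 min ×100, graded A ≥75%, B 60–<75%, C 45–<60%, D <45%.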
# [2] = finer grading of compounds rated A in Evaluation 1, read-out: PDE4 Inhibitory Activity (Evaluation 2)
# [3] = scintillation proximity assay, class symbols of Evaluation 1, read-out: PDE4 Inhibitory Activity (concentration for the inhibition rate of 50%, IC50), Evaluation 1
compound,measurement,setting,value
"FC(F)(F)Oc1c(Cl)cc(-c2nccs2)c2oc(N3CC4CC(C3)N4)nc12 [Example 3, 2-(3,6-Diazabicyclo[3.1.1]heptan-3-yl)-5-chloro-7-(thiazol-2-yl)-4-(trifluoromethoxy)benzo[d]oxazole]",pIC50,PDE4; [2],≥ 9.00
same,pIC50,PDE4; [3],> 7.00
same,PDE4 inhibitory activity,PDE4,particularly excellent
same,pIC50,TGF-β,> 6.00
same,Residual ratio (% remaining for 30-minute reaction),[1],B (B: 60% or more and less than 75%)
"FC(F)(F)Oc1c(Cl)cc(-c2nccs2)c2oc(N3CC4COCC(C3)N4)nc12 [Example 4, 7-(5-Chloro-7-(thiazol-2-yl)-4-(trifluoromethoxy)benzo[d]oxazol-2-yl)-3-oxa-7,9-diazabicyclo[3.3.1]nonane]",pIC50,PDE4; [2],7.96 to 9.00
same,pIC50,PDE4; [3],> 7.00
same,PDE4 inhibitory activity,PDE4,particularly excellent
same,pIC50,TGF-β,> 6.00
"Cc1ccc(-c2nccs2)c2oc(N3CC4CCC(C3)N4)nc12 [Example 25, 2-(3,8-Diazabicyclo[3.2.1]octan-3-yl)-4-methyl-7-(thiazol-2-yl)benzo[d]oxazole]",pIC50,PDE4; [2],≥ 9.00
same,pIC50,PDE4; [3],> 7.00
same,PDE4 inhibitory activity,PDE4,particularly excellent
same,pIC50,TGF-β,> 6.00
"FC(F)(F)Oc1ccc(-c2nccs2)c2oc(N3CC4CCCC(C3)N4)nc12 [Example 30, 2-(3,9-Diazabicyclo[3.3.1]nonan-3-yl)-7-(thiazol-2-yl)-4-(trifluoromethoxy)benzo[d]oxazole]",pIC50,PDE4; [2],≥ 9.00
same,pIC50,PDE4; [3],> 7.00
same,PDE4 inhibitory activity,PDE4,particularly excellent
same,pIC50,TGF-β,> 6.00
"FC(F)(F)c1ccc(-c2nccs2)c2oc(N3CC4CC(C3)N4)nc12 [Example 32, 2-(3,6-Diazabicyclo[3.1.1]heptan-3-yl)-7-(thiazol-2-yl)-4-(trifluoromethyl)benzo[d]oxazole]",pIC50,PDE4; [2],7.96 to 9.00
same,pIC50,PDE4; [3],> 7.00
same,PDE4 inhibitory activity,PDE4,particularly excellent
same,pIC50,TGF-β,> 6.00
"COc1ccc(-c2nccs2)c2oc(N3CC4CCC(C3)N4)nc12 [Example 75, 2-(3,8-Diazabicyclo[3.2.1]octan-3-yl)-4-methoxy-7-(thiazol-2-yl)benzo[d]oxazole]",pIC50,PDE4; [2],7.96 to 9.00
same,pIC50,PDE4; [3],> 7.00
same,PDE4 inhibitory activity,PDE4,particularly excellent
same,pIC50,TGF-β,> 6.00
"CC(C)(O)c1cc(-c2nccs2)c2oc(N3CC4CCC(C3)N4)nc2c1C(F)(F)F [Example 177, 2-(2-(3,8-Diazabicyclo[3.2.1]octan-3-yl)-7-(thiazol-2-yl)-4-(trifluoromethyl)benzo[d]oxazol-5-yl)propan-2-ol]",pIC50,PDE4; [2],7.96 to 9.00
same,pIC50,PDE4; [3],> 7.00
same,PDE4 inhibitory activity,PDE4,particularly excellent
same,pIC50,TGF-β,> 6.00
